According to US7135466B2 (Kirin Beer Kabushiki Kaisha, priority 1999, dated 2006):
Read-outs that look alike come from different tables or passages of the source.

Columns and labels:
PDGF-Ra = biological target: T1, PDGF-Ra (Homo sapiens, UniProt P16234); experiment: Inhibitory activity against PDGF-Ra phosphorylation by PDGF-AA stimulation using G292; format: cell-based; settings: for IC50: > means inhibition at indicated concentration not more than 50%, < and << not less than 50%, read-out: PDGF (E) IC50; for inhibition at 0.1 µM: G292, at 100 nM, read-out: PDGF (E) inhibition (%) at 100 nM
T1 construct: host or cells: G-292 human osteosarcoma cells
Procedure, shortened: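 Phospho-PDGF-Ra ELISA: capture with PY-20 antiphosphotyrosine, detection with anti-PDGF-Ra and peroxidase secondary, read at 450 nm. Lysates came from G-292 osteosarcoma cells starved in 0.1% FBS, compound-treated 1 hr at 37° C, and stimulated with 50 ng/ml PDGF-AA for 5 min.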

c-kit = biological target: T2, c-kit (Homo sapiens, UniProt P10721); experiment: Inhibitory activity against c-kit autophosphorylation (MO7e cells, h-SCF); format: cell-based; settings: for IC50: MO7e cells, read-out: c-kit IC50; for inhibition at 1 µM: Mo7e, at 1000 nM
T2 construct: MO7e (human megakaryocytic leukemia cell line) which had been arrested for 20 hr; endogenous in cells; host or cells: MO7e human megakaryocytic leukemia cell line
Procedure, shortened: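 Phospho-c-kit ELISA: plate-bound PY-20 anti-phosphotyrosine captures lysate, anti-c-kit plus peroxidase-labelled secondary antibody detect, read at 450 nm. Lysates come from 20 hr-arrested MO7e cells given compound for 1 hr before a 5 min 50 ng/ml h-SCF stimulus.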

[1] = figure within parentheses in >100( )
[2] = figure within parentheses in −( ) or >1000( )
[3] = figure in parentheses in >100( )

T1 sequence (P16234 24-1089): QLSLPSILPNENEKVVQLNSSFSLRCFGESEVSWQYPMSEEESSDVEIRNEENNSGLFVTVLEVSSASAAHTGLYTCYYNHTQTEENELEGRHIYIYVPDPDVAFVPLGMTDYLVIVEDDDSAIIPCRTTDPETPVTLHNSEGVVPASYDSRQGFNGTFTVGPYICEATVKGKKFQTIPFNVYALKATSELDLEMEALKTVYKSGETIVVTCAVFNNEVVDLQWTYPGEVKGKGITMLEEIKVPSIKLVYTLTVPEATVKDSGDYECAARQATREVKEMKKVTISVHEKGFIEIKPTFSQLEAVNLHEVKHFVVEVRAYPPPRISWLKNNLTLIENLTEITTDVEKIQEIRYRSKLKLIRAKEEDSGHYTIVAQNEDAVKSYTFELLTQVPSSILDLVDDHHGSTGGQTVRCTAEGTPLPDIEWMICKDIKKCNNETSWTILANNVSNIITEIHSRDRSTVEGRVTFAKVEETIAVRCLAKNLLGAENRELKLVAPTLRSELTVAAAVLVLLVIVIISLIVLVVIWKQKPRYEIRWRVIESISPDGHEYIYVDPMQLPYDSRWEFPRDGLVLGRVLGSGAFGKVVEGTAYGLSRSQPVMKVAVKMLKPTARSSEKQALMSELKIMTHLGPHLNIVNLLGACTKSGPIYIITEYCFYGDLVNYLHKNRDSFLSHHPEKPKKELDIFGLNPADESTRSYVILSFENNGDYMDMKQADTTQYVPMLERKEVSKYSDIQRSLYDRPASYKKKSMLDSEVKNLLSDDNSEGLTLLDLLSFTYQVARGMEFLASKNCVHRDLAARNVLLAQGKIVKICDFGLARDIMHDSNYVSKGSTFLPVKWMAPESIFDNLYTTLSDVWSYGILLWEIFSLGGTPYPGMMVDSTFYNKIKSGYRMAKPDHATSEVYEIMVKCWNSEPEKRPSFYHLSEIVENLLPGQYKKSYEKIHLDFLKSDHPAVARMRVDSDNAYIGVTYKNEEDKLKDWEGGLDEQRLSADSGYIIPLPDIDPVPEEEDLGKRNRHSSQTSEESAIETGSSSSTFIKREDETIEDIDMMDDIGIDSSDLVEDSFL
T2 sequence (P10721 26-976): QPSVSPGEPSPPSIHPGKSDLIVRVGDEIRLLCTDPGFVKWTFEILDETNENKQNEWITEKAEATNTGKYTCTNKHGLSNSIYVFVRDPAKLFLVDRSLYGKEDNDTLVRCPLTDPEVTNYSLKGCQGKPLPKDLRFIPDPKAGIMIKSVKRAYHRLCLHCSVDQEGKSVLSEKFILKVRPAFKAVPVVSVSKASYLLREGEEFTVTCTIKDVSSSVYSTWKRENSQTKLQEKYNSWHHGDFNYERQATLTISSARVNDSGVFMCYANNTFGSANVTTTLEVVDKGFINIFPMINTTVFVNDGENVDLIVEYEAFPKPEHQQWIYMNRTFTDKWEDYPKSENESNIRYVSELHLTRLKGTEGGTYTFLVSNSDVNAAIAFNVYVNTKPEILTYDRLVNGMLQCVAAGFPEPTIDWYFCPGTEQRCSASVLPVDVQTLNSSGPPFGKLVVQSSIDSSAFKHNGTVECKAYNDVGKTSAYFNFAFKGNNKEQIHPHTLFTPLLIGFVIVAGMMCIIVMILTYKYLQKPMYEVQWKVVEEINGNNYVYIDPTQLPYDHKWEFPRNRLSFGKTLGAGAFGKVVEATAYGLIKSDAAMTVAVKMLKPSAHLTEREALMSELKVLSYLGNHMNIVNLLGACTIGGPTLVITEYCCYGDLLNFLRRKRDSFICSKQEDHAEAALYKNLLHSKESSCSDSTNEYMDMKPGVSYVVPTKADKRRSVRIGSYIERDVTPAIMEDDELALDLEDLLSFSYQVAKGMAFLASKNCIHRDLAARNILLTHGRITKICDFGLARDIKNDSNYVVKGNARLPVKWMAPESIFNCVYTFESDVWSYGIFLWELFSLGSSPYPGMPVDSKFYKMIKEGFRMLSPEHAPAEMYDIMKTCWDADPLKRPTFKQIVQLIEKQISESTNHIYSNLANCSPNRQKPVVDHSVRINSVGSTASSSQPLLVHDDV

Compound: COc1cc2nccc(Oc3cc(C)c(NC(=O)OC(C)c4cccc(F)c4)cc3C)c2cc1OC (stereo not shown) [Example 99, 1-(3-Fluorophenyl)ethyl N-{4-[(6,7-dimethoxy-4-quinolyl)oxy]-2,5-dimethylphenyl}carbamate]
- IC50 (PDGF-Ra; Pharmacological Test Example 1): 21 nM
- IC50 (c-kit; h-SCF 50 ng/ml): 394 nM

Compound: CCCCN(CCCC)CCCNC(=S)Nc1cc(C)c(Oc2ccnc3cc(OC)c(OC)cc23)cc1C [Example 552, N-{4-[(6,7-Dimethoxy-4-quinolyl)oxy]-2,5-dimethylphenyl}-N′-(3-dibutylaminopropyl)thiourea]
- IC50 (PDGF-Ra): > 100 nM
- inhibition at 0.1 µM (PDGF-Ra; [1]): 10%
- inhibition at 1 µM (c-kit; [2]): 28%

Compound: COc1cccc(OCCCOC(=O)Nc2cc(C)c(Oc3ccnc4cc(OC)c(OC)cc34)cc2C)c1 [Example 163, 3-(3-Methoxyphenoxy)propyl N-{4-[(6,7-dimethoxy-4-quinolyl)oxy]-2,5-dimethylphenyl}carbamate]
- IC50 (PDGF-Ra; Pharmacological Test Example 1): < 10 nM
- IC50 (c-kit; h-SCF 50 ng/ml): 185 nM

Compound: COc1cc2nccc(Oc3ccc(NC(=O)NC4CCN(Cc5ccccc5C)C4)cc3)c2cc1OC (stereo not shown) [Example 574, N-{4-[(6,7-Dimethoxy-4-quinolyl)oxy]phenyl}-N′-[1-(2-methylbenzyl)tetrahydro-1H-3-pyrrolyl]urea]
- IC50 (PDGF-Ra): 45 nM
- IC50 (c-kit; 50 ng/ml h-SCF): 147 nM

Compound: COc1cc2ncnc(Oc3ccc(NC(=O)OC(C)c4ccccc4F)c(Cl)c3)c2cc1OC (stereo not shown) [Example 126, 1-(2-Fluorophenyl)ethyl N-{2-chloro-4-[(6,7-dimethoxy-4-quinazolinyl)oxy]phenyl}carbamate]
- IC50 (PDGF-Ra; Pharmacological Test Example 1): 19 nM
- inhibition at 1 µM (c-kit; figure in parentheses in −( )): 10%

Compound: CCCCCOc1ccc(C(=O)NC(=S)Nc2ccc(Oc3ccnc4cc(OC)c(OC)cc34)cc2)cc1 [Example 753, N-{4-[(6,7-Dimethoxy-4-quinolyl)oxy]phenyl}-N′-[4-(pentyloxy)benzoyl]thiourea]
- IC50 (PDGF-Ra): > 100 nM
- inhibition at 0.1 µM (PDGF-Ra; [1]): 28%
- inhibition at 1 µM (c-kit; [2]): 9%

Compound: COc1cc2nccc(Oc3ccc(NC(=O)OCCCN4CCN(C)CC4)cc3)c2cc1OC [Example 424, 3-(4-Methylpiperazino)propyl N-{4-[(6,7-dimethoxy-4-quinolyl)oxy]phenyl}carbamate]
- IC50 (PDGF-Ra): 47 nM
- IC50 (c-kit; 50 ng/ml h-SCF): 224 nM

Compound: COc1cccc(C(C)OC(=O)Nc2ccc(Oc3ncnc4cc(OC)c(OC)cc34)cc2Cl)c1 (stereo not shown) [Example 56, 1-(3-Methoxyphenyl)ethyl N-{2-chloro-4-[(6,7-dimethoxy-4-quinazolinyl)oxy]phenyl}carbamate]
- IC50 (PDGF-Ra; Pharmacological Test Example 1): 11 nM
- IC50 (c-kit; h-SCF 50 ng/ml): 774 nM

Compound: COc1cc2nccc(Oc3ccc(NC(=O)NC4CCN(Cc5ccccc5)CC4)c([N+](=O)[O-])c3)c2cc1OC [Example 638, N-(1-Benzyl-4-piperidyl)-N′-{4-[(6,7-dimethoxy-4-quinolyl)oxy]-2-nitrophenyl}urea]
- IC50 (PDGF-Ra): > 100 nM
- inhibition at 0.1 µM (PDGF-Ra; [1]): 43%
- inhibition at 1 µM (c-kit; [2]): 16%

Compound: COc1cc2nccc(Oc3cc(C)c(NC(=O)OCc4cccc(C)c4)cc3C)c2cc1OC [Example 254, 3-Methylbenzyl N-{4-[(6,7-dimethoxy-4-quinolyl)oxy]-2,5-dimethylphenyl}carbamate]
- inhibition at 0.1 µM (PDGF-Ra; [3]): 27%
- IC50 (PDGF-Ra; Pharmacological Test Example 1): > 100 nM
- IC50 (c-kit; h-SCF 50 ng/ml): 396 nM

Compound: N-{4-[(6,7-Dimethoxy-4-quinolyl)oxy]-2-methoxyphenyl}-N′-(1-homopiperidinyl)urea [Example 600]
- IC50 (PDGF-Ra): < 10 nM
- IC50 (c-kit; 50 ng/ml h-SCF): 208 nM

Compound: COc1cc2nccc(Oc3ccc(NC(=O)NCCN(C(C)C)C(C)C)c([N+](=O)[O-])c3)c2cc1OC [Example 658, N-[2-(Diisopropylamino)ethyl]-N′-{4-[(6,7-dimethoxy-4-quinolyl)oxy]-2-nitrophenyl}urea]
- IC50 (PDGF-Ra): 19 nM
- IC50 (c-kit; 50 ng/ml h-SCF): 389 nM

Compound: COc1cc2ncnc(Oc3ccc(NC(=O)NC4CCN(Cc5ccccc5)CC4)cc3)c2cc1OC [Example 636, N-(1-Benzyl-4-piperidyl)-N′-{4-[(6,7-dimethoxy-4-quinazolinyl)oxy]phenyl}urea]
- IC50 (PDGF-Ra): 33 nM
- IC50 (c-kit; 50 ng/ml h-SCF): 106 nM

Compound: COc1cc2ncnc(Oc3ccc(NC(=S)NC(=O)C4CC4)cc3)c2cc1OC [Example 1181, N-Cyclopropylcarbonyl-N′-{4-[(6,7-dimethoxy-4-quinazolinyl)oxy]phenyl}thiourea]
- IC50 (PDGF-Ra): 35 nM
- inhibition at 1 µM (c-kit; figure in parentheses in −( )): 26%

Compound: COc1cc2ncnc(Oc3ccc(NC(=O)NCCN4CCCC4)c([N+](=O)[O-])c3)c2cc1OC [Example 653, N-{4-[(6,7-Dimethoxy-4-quinazolinyl)oxy]-2-nitrophenyl}-N′-(2-tetrahydro-1H-1-pyrrolylethyl)urea]
- IC50 (PDGF-Ra): 23 nM
- IC50 (c-kit; 50 ng/ml h-SCF): 581 nM

Compound: CCCCOC(=O)Nc1ccc(Oc2ccnc3cc(OC)c(OC)cc23)c(C)c1C [Example 323, Butyl N-{4-[(6,7-dimethoxy-4-quinolyl)oxy]-2,3-dimethylphenyl}carbamate]
- IC50 (PDGF-Ra; Pharmacological Test Example 1): < 10 nM
- IC50 (c-kit; h-SCF 50 ng/ml): < 30 nM

Compound: COc1ccc(OC)c(COC(=O)Nc2ccc(Oc3ncnc4cc(OC)c(OC)cc34)cc2Cl)c1 [Example 71, 2,5-Dimethoxybenzyl N-{2-chloro-4-[(6,7-dimethoxy-4-quinazolinyl)oxy]phenyl}carbamate]
- IC50 (PDGF-Ra; Pharmacological Test Example 1): 38 nM
- inhibition at 1 µM (c-kit; figure in parentheses in −( )): 34%

Compound: COc1cc2nccc(Oc3ccc(NC(=O)NCCN(C)C)c(C)c3C)c2cc1OC [Example 626, N-{4-[(6,7-Dimethoxy-4-quinolyl)oxy]-2,3-dimethylphenyl}-N′-[2-(dimethylamino)ethyl]urea]
- IC50 (PDGF-Ra): 49 nM
- IC50 (c-kit; 50 ng/ml h-SCF): 339 nM

Compound: COc1cc2nccc(Oc3cc(C)c(NC(=O)Oc4ccccc4C(C)(C)C)cc3C)c2cc1OC [Example 301, 2-(Tert-butyl)phenyl N-{4-[(6,7-dimethoxy-4-quinolyl)oxy]-2,5-dimethylphenyl}carbamate]
- IC50 (PDGF-Ra; Pharmacological Test Example 1): 43 nM
- inhibition at 1 µM (c-kit; figure in parentheses in −( )): 39%

Compound: COc1cc2nccc(Oc3ccc(NC(=O)OC(C)c4ccccc4Br)cc3)c2cc1OC (stereo not shown) [Example 112, 1-(2-Bromophenyl)ethyl N-{4-[(6,7-dimethoxy-4-quinolyl)oxy]phenyl}carbamate]
- IC50 (PDGF-Ra; Pharmacological Test Example 1): 16 nM
- IC50 (c-kit; h-SCF 50 ng/ml): 214 nM

Compound: COc1cc2nccc(Oc3cc(C)c(NC(=O)OCc4ccc(F)cc4)cc3C)c2cc1OC [Example 10, 4-Fluorobenzyl N-{4-[(6,7-dimethoxy-4-quinolyl)oxy]-2,5-dimethylphenyl}carbamate]
- IC50 (PDGF-Ra; Pharmacological Test Example 1): 11 nM
- IC50 (c-kit; h-SCF 50 ng/ml): 106 nM

Compound: COc1cc2nccc(Oc3ccc(NC(=S)NC(=O)COc4ccccc4C)cc3Cl)c2cc1OC [Example 740, N-{3-Chloro-4-[(6,7-dimethoxy-4-quinolyl)oxy]phenyl}-N′-[2-(2-methylphenoxy)acetyl]thiourea]
- IC50 (PDGF-Ra): 23 nM
- IC50 (c-kit; 50 ng/ml h-SCF): 335 nM

Compound: COc1cc2ncnc(Oc3ccc(NC(=S)NC(=O)Cc4ccccc4C)cc3)c2cc1OC [Example 703, N-{4-[(6,7-Dimethoxy-4-quinazolinyl)oxy]phenyl}-N′-[2-(2-methylphenyl)acetyl]thiourea]
- IC50 (PDGF-Ra): < 10 nM
- IC50 (c-kit; 50 ng/ml h-SCF): 375 nM

Compound: COc1cc2nccc(Oc3ccc(NC(=O)OCCCSc4ccc(Cl)cc4C)cc3)c2cc1OC [Example 77, 3-[(4-Chloro-2-methylphenyl)sulfanyl]propyl N-{4-[(6,7-dimethoxy-4-quinolyl)oxy]phenyl}carbamate]
- IC50 (PDGF-Ra; Pharmacological Test Example 1): < 10 nM
- IC50 (c-kit; h-SCF 50 ng/ml): 99 nM

Compound: CCCC(CC)OC(=O)Nc1ccc(Oc2ncnc3cc(OC)c(OC)cc23)cc1Cl (stereo not shown) [Example 338, 1-Ethylbutyl N-{2-chloro-4-[(6,7-dimethoxy-4-quinazolinyl)oxy]phenyl}carbamate]
- IC50 (PDGF-Ra; Pharmacological Test Example 1): 25 nM
- IC50 (c-kit; h-SCF 50 ng/ml): 956 nM

Compound: COc1cc2ncnc(Oc3ccc(NC(=O)NC4CCN(Cc5ccccc5Cl)C4)cc3)c2cc1OC (stereo not shown) [Example 580, N-[1-(2-Chlorobenzyl)tetrahydro-1H-3-pyrrolyl]-N′-{4-[(6,7-dimethoxy-4-quinazolinyl)oxy]phenyl}urea]
- IC50 (PDGF-Ra): 14 nM
- IC50 (c-kit; 50 ng/ml h-SCF): 84 nM

Compound: CCCC(CC)OC(=O)Nc1ccc(Oc2ncnc3cc(OC)c(OC)cc23)cc1 (stereo not shown) [Example 337, 1-Ethylbutyl N-{4-[(6,7-dimethoxy-4-quinazolinyl)oxy]phenyl}carbamate]
- IC50 (PDGF-Ra; Pharmacological Test Example 1): < 10 nM
- IC50 (c-kit; h-SCF 50 ng/ml): 198 nM

Compound: COc1cc2nccc(Oc3cc(C)c(NC(=O)OCC4CCCC4)cc3C)c2cc1OC [Example 395, Cyclopentylmethyl N-{4-[(6,7-dimethoxy-4-quinolyl)oxy]-2,5-dimethylphenyl}carbamate]
- IC50 (PDGF-Ra; Pharmacological Test Example 1): 19 nM
- IC50 (c-kit; h-SCF 50 ng/ml): 226 nM

Compound: COc1cc2ncnc(Oc3ccc(NC(=O)OCCc4cccc(C(F)(F)F)c4)cc3)c2cc1OC [Example 85, 3-(Trifluoromethyl)phenethyl N-{4-[(6,7-dimethoxy-4-quinazolinyl)oxy]phenyl}carbamate]
- IC50 (PDGF-Ra; Pharmacological Test Example 1): < 10 nM
- IC50 (c-kit; h-SCF 50 ng/ml): 163 nM

Compound: CCCCCCOC(=O)Nc1cc(C)c(Oc2ccnc3cc(OC)c(OC)cc23)cc1C [Example 262, Hexyl N-{4-[(6,7-dimethoxy-4-quinolyl)oxy]-2,5-dimethylphenyl}carbamate]
- IC50 (PDGF-Ra; Pharmacological Test Example 1): 7 nM
- IC50 (c-kit; h-SCF 50 ng/ml): 83 nM

Compound: COc1cc2nccc(Oc3ccc(NCCOc4c(C)cccc4C)c(C)c3C)c2cc1OC [Example 894, N-{4-[(6,7-Dimethoxy-4-quinolyl)oxy]-2,3-dimethylphenyl}-N-[2-(2,6-dimethylphenoxy)ethyl]amine]
- IC50 (PDGF-Ra): > 100 nM
- inhibition at 0.1 µM (PDGF-Ra; [3]): 49%
- inhibition at 1 µM (c-kit; figure in parentheses in −( )): 23%
